{
  "source": "patent US20150125904A1",
  "about": "“PROBE INCORPORATION MEDIATED BY ENZYMES” (Massachusetts Institute of Technology, priority 2012, published 2015)",
  "key": {"W37TLplA": {"target": "T1, W37TLplA (Escherichia coli, UniProt P32099, W38T)", "T1 construct": "His6; made in house; host or cells: E. coli (bacterial lysate, not purified)", "T1 sequence (P32099 2-338 W38T)": "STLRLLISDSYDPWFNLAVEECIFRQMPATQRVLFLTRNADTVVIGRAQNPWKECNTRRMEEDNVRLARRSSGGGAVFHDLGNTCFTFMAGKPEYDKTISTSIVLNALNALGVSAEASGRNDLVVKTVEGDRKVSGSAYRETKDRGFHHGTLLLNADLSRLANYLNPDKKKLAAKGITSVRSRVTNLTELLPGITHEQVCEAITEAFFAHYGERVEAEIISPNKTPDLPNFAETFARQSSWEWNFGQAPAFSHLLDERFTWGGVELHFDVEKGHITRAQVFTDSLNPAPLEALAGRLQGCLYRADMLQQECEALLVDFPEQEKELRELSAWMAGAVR", "assay": "UPLC screening of LplA single mutants for Pacific Blue ligation", "assay_type": "biochemical, E. coli", "conditions": "after 12 hours, 500 μM probe", "method": "In vitro ligation reactions were assembled as described in the main text with the following modifications. 5 μL bacterial lysate containing LplA was used in place of purified enzyme. Total reaction volume was 25 μL. Instead of LAP peptide, 150 μM purified E2p protein (see Uttamapinant, et al., 2010) was used. Reactions proceeded overnight at 30° C. with 500 μM probe. Ultra Performance Liquid Chromatography (UPLC) was used to detect any product formation. All products were confirmed by in-line mass spectrometry."}, "W37VLplA [1]": {"target": "T2, W37VLplA (Escherichia coli, UniProt P32099, W38V)", "T2 sequence (P32099 2-338 W38V)": "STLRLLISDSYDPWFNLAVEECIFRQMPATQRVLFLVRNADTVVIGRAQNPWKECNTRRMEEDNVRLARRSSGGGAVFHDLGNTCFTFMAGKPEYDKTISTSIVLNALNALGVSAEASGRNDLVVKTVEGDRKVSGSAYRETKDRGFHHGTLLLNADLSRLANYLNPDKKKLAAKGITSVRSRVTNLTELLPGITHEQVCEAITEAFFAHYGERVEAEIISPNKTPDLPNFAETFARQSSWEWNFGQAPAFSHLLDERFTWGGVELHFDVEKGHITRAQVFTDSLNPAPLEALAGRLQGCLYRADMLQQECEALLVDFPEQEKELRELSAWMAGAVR", "assay": "In vitro coumarin ligation onto LAP2 (HPLC)", "assay_type": "biochemical, E. coli", "conditions": "500 μM coumarin probe, 2 μM W37VLplA, 55-minute reaction", "method": "Reactions were assembled as follows: 2 μM LplA enzyme, 150 μM LAP2 synthetic peptide (sequence: […]; see Puthenveetil et al., J. Am. Chem. Soc. 2009, 131 16430-16438), 500 μM 7-aminocoumarin 6 probe, 5 mM ATP, and 5 mM Mg(OAc)2 in 25 mM Na2HPO4 pH 7.2. The reaction mixture was incubated at 30° C. for 2 hours and quenched with EDTA (final concentration 100 mM). The mixture was analyzed on a Varian Prostar HPLC using a reverse-phase C18 Microsorb-MV 100 column (250×4.6 mm). Chromatograms were recorded at 210 nm. We used a 10-minute gradient of 30-60% acetonitrile in water with 0.1% trifluoroacetic acid under 1 mL/minute flow rate.\n2 μM ^W37VLplA and 500 μM coumarin probe were used in one case. Aliquots from the reaction were collected and quenched with EDTA over 55 minutes. For the other case, 1 μM ^W37VLplA and 100 μM coumarin probe were used, and aliquots were collected and quenched over 70 minutes. After HPLC analysis, percent product conversions were calculated by dividing the product peak area by the sum of (product+starting material) peak areas."}, "W37VLplA [2]": {"target": "T2, W37VLplA", "conditions": "previously determined, cited from earlier work"}, "[3]": {"assay": "Photophysical properties, pKa and pH profiles of coumarin probes", "assay_type": "physicochemical", "conditions": "150 μM solutions, pH 3-10 buffers", "method": "Fluorescence emission was recorded for 150 μM solutions, using a TECAN Safire Microplate Reader and a plastic transparent-bottomed 384-well plate (Greiner). pH 3-6 buffers were prepared by mixing different ratios of 0.1M acetic acid and 0.1M sodium acetate-trihydrate solutions. pH 7-10 buffers were prepared by mixing different ratios of 0.1M Na2HPO4 and either 0.1M HCl (for pH 7-9 buffers) or 0.1M NaOH (for pH 10 buffer). Final pH adjustments in all buffer solutions were made by adding small amount of 1M HCl or 1M NaOH."}, "[4]": {"conditions": "cited from earlier work"}, "[5]": {"target": "Trp37→Val LplA (W37VLplA) (Escherichia coli, UniProt P32099, W38V)", "sequence (P32099 2-338 W38V)": "as above", "conditions": "30 min reaction, 500 μM probe; normalized to TCO2/Trp37→Val", "method": "(§1) LplA protein was purified as previously described2 and stored at −80° C. in 20 mM Tris-HCl, pH 7.5 supplementated with 10% v/v glycerol. Reactions were quenched with 30 mM EDTA (final concentration) and resolved by HPLC (Varian ProStar) on a C-18 column using a linear gradient of 25-60% acetonitrile in H2O (with 0.1% v/v trifluoroacetic acid) over 14 minutes. Species were detected at 210 nm absorbance. Peaks corresponding to LAP and its trans-cyclooctene adducts were confirmed by ESI mass spectrometry. The extent of conversion was calculated from ratios of peak areas, neglecting minor extinction coefficient changes to LAP due to trans-cyclooctene ligation.\n(§2) The relative abilities of wild-type and mutant ligases to ligate TCO1-3 onto LplA acceptor peptide (LAP) were measured by an HPLC assay after 30 min. reaction time. […] Errors, ±1 s. d."}, "Trp37→Gly LplA": {"target": "Trp37→Gly LplA (Escherichia coli, UniProt P32099, W38G)", "sequence (P32099 2-338 W38G)": "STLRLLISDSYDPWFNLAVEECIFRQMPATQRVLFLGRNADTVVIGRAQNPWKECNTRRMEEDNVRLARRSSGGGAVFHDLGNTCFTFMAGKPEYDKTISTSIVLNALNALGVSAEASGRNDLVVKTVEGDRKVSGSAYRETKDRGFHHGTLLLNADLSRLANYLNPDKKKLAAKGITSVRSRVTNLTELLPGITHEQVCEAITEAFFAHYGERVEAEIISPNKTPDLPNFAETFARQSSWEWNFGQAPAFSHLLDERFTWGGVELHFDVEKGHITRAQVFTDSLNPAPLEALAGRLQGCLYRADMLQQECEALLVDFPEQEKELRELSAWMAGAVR", "conditions": "30 min reaction, 500 μM probe; normalized to TCO2/Trp37→Val", "method": "as §1, §2"}, "Trp37→Ile LplA": {"target": "Trp37→Ile LplA (Escherichia coli, UniProt P32099, W38I)", "sequence (P32099 2-338 W38I)": "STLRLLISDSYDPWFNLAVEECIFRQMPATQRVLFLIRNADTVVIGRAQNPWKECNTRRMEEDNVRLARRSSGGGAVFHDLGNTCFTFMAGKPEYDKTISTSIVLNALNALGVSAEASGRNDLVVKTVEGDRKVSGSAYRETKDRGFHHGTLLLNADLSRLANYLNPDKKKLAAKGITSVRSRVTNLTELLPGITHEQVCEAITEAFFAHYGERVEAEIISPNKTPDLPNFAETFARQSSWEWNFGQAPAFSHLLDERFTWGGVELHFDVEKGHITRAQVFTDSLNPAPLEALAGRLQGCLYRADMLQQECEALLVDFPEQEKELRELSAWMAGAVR", "conditions": "30 min reaction, 500 μM probe; normalized to TCO2/Trp37→Val", "method": "as §1, §2"}, "[6]": {"test_system": "LAP-LDL receptor on HEK cells", "assay": "Comparison of Diels-Alder cycloaddition, CuAAC and strain-promoted cycloaddition for cell surface fluorescence labeling", "assay_type": "cell-based, human", "conditions": "3 min staining after TCO2 ligation", "from_the_text": "(A) HEK cells expressing LAP-LDL receptor and a nuclear cyan fluorescent protein transfection marker (shown in cyan, overlaid with DIC) were labeled in two steps, using three methodologies, as indicated by the scheme: Diels-Alder cycloaddition (left), CuAAC (middle), and strain-promoted cycloaddition (right). Fernandez-Suarez et al., Nature Biotechnology 2007, 25, 1483-1487. For the latter two, LAP was first derivatized with 8-azidooctanoic acid under conditions known to give quantitative yield. DIBO is dibenzylcyclooctyne. In all three cases, the second step was performed for 3 min., using the indicated Alexa 647 conjugates at the three indicated concentrations. Cells were imaged live after brief rinsing. Specific fluorescence staining with 1 μM DIBO-Alexa 647 was detectable (shown with enhanced contrast in inset). (B) Comparing cell viability after cell surface fluorescence labeling. Chinese hamster ovary cells expressing LAP-LDL receptor were labeled using Diels-Alder cycloaddition or CuAAC under the indicated conditions. Cell viability was then measured in triplicate, with untransfected and untreated cells defined as 100% viable. […]\nThese were previously determined, by subsequent lipoic acid pulse labeling, to give almost quantitative yield of 8-azidooctanoic acid ligation. […]"}, "[7]": {"assay": "Photophysical properties of phycoerythrin and AlexaFluor 568", "assay_type": "physicochemical"}},
  "note": "Like-named read-outs stand apart in the source and are kept apart here.",
  "data": [
    {"molecule": "6,8-difluoro-7-hydroxycoumarin [Pacific Blue]", "values": [
      {"measurement": "conversion to ligation product", "setting": "W37TLplA", "result": "~50", "unit": "%"}
    ]},
    {"molecule": "O=C(O)CCCCNC(=O)c1cc2ccc(O)cc2oc1=O", "note": "[7-hydroxycoumarin 2]", "values": [
      {"measurement": "LAP converted to product", "setting": "W37VLplA [1]", "result": 46, "unit": "%"},
      {"measurement": "Km", "setting": "W37VLplA [2]", "result": "56 ± 20", "unit": "µM"},
      {"measurement": "kcat", "setting": "W37VLplA [2]", "result": 0.019, "unit": "s⁻¹"},
      {"measurement": "kcat", "setting": "W37VLplA [2]; listed as HC4", "result": "0.019 ± 0.004", "unit": "s⁻¹"},
      {"measurement": "pH dependence of fluorescence", "setting": "[3]", "result": "drops sharply at pH values <6.5"},
      {"measurement": "emission maximum", "setting": "[4]; Sun, et al.", "result": 448, "unit": "nm"},
      {"measurement": "excitation maximum", "setting": "[4]; Sun, et al.", "result": 386, "unit": "nm"},
      {"measurement": "extinction coefficient", "setting": "[4]; Sun, et al.", "result": "36,700 M^−1 cm^−1"},
      {"measurement": "pKa of 7-OH substituent", "setting": "[4]", "result": 7.5}
    ]},
    {"molecule": "O=C(O)CCCNC(=O)OC[C@H]1[C@@H]2CC/C=C/CC[C@@H]21", "note": "[TCO3, (rel-1R,8S,9R,4E)-Bicyclo[6.1.0]non-4-ene-9-ylmethyl-N-butyric acid carbamate]", "values": [
      {"measurement": "Ligation efficiency (average, normalized product percentage), Trp37→Val", "setting": "[5]", "result": "6.6 ± 0.6", "unit": "%"},
      {"measurement": "Ligation efficiency (average, normalized product percentage), Trp37→Gly", "setting": "Trp37→Gly LplA", "result": "22.6 ± 2.0", "unit": "%"},
      {"measurement": "Ligation efficiency (average, normalized product percentage), Trp37→Ile", "setting": "Trp37→Ile LplA", "result": "6.0 ± 0.6", "unit": "%"}
    ]},
    {"molecule": "Aminobenzyltetrazine Alexa Fluor 647 [Tz1-Alexa 647]", "values": [
      {"measurement": "dye concentration giving specific signal", "setting": "[6]", "result": 10, "unit": "nM"}
    ]},
    {"molecule": "R-phycoerythrin", "values": [
      {"measurement": "brightness relative to AlexaFluor 568", "setting": "[7]", "result": "> 25", "unit": "times"}
    ]}
  ]
}
